In paper PMC3040809 (Amino Acids, 2010):

Tests used:
[1] = physiological pH; ref Lenzen and Munday [1991]; cited from earlier work
[2] = target: T1, hOGT (Homo sapiens, UniProt O15294); type: biochemical
T1 sequence (O15294 26-1036 isoform O15294-3): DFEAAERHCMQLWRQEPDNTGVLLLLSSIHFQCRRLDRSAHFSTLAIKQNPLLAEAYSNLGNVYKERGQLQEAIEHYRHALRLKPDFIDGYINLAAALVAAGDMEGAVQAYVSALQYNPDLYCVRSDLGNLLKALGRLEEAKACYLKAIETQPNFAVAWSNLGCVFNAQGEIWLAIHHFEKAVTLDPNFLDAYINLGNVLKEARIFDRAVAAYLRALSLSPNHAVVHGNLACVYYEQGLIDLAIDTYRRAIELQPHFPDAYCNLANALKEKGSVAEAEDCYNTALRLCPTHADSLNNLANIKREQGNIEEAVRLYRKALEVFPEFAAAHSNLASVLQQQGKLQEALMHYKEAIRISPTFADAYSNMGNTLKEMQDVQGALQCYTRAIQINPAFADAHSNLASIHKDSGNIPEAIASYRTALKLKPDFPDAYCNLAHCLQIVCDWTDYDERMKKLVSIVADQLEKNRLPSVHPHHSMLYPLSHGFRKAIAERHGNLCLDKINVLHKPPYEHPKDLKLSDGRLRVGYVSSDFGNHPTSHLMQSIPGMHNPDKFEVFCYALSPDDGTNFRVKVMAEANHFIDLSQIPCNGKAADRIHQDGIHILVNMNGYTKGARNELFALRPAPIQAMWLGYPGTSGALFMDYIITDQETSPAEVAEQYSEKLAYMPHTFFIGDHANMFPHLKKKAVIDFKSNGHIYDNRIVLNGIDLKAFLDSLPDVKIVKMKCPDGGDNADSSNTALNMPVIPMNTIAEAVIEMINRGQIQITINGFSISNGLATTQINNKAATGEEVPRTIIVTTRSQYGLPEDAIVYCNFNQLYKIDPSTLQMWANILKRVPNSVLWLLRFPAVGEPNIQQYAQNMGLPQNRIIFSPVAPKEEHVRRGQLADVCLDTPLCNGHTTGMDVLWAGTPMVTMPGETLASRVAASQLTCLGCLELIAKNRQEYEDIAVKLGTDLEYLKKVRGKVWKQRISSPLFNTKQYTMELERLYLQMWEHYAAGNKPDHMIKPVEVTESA

[3] = system: cellular levels of O-GlcNAcylation; conditions: ref Liu et al. [2005], [2006], [2007]; Noach et al. [2007]; Kang et al. [2008]; cited from earlier work

Question: With `O=C1NC(=O)C(=O)C(=O)N1` [Alloxan] as the compound, how does the half-life time [1] read?
Answer: Its half-life time is 1.5 min.

Question: And the IC50 [2]?
Answer: The IC50 was 18 ± 1 µM.

Question: And the “concentration required to decrease cellular levels of O-GlcNAcylation” value [3]?
Answer: The value was “millimolar concentrations”.
